Holding throughout (assay type): cell-based, S. cerevisiae
Data set [1] concerns PGAL1-CBF1. Kind of data set: GEV-mediated induction of PGAL1-CBF1 transcript, microarray (DBY12040). To be noted: by 5 minutes following addition of β-estradiol. As to the method: (§1) For induction experiments, yeast were cultured in 500 mL chemostats (Sixfors; Bottmingen, Switzerland) under phosphate-limitation (20 mg/L potassium phosphate) and pulsed with 1 μM β-estradiol (Tocris Biosciences; Missouri). For the MET4 induction experiment, phosphate-limited media was supplemented with 200 mg/L methionine. Culture volume was maintained at 300 mL. 12-18 hours of batch phase growth prior to pump turn-on was initiated from a 1/60 dilution of cells grown overnight in the same medium. Cultures were grown at 30° C., stirred at 400 RPM, and aerated at 5 L/min with filtered humidified air.
RNA from cells was extracted, labeled, and hybridized to Agilent expression microarrays as described by (Brauer et al., 2008) with slight modifications. Briefly, RNA was extracted from frozen cells with a standard acid-phenol method and then cleaned with RNeasy (Qiagen). Cleaned mRNA was then converted to cDNA and subsequently converted to labeled cRNA with the Agilent Quick-Amp Labeling Kit (Part No. 5190-0424). Microarray hybridizations were performed for 17 hours at 65° C. and rotated on a rotisserie at 20 RPM. Microarrays were washed and then scanned with Agilent Feature Extractor Software version 9.5. […]
For time series experiments, 5 mL of cells were taken per culture per time point. […] Enrichment for gene ontology (GO) terms was determined using GO-term finder (Boyle et al., 2004).

For data set [2], the system named is DBY12021. Briefly: Genome-wide expression after β-estradiol pulse in phosphate-limited chemostat, microarray (DBY12021). As to the method: as §1
RNA from cells was extracted, labeled, and hybridized to Agilent expression microarrays as described by (Brauer et al., 2008) with slight modifications. Briefly, RNA was extracted from frozen cells with a standard acid-phenol method and then cleaned with RNeasy (Qiagen). Cleaned mRNA was then converted to cDNA and subsequently converted to labeled cRNA with the Agilent Quick-Amp Labeling Kit (Part No. 5190-0424). Microarray hybridizations were performed for 17 hours at 65° C. and rotated on a rotisserie at 20 RPM. Microarrays were washed and then scanned with Agilent Feature Extractor Software version 9.5. Flagged features marked as unreliable were marked N/A. Raw green- and red-channel intensities were floored to a value of 350 (i.e., intensities below 350 were set equal to 350). If the numerator (red-channel, sample RNA) for a given measurement was floored, the denominator (green-channel, reference RNA) for that measurement was set to the average green channel intensity for that gene. The purpose of this smoothing process is to make genes with negligible red-channel signal intensity less sensitive to small fluctuations in the reference intensity. After flooring of the data, the log 2 ratios were computed.
For time series experiments, 5 mL of cells were taken per culture per time point. Reference RNA was taken from DBY12001 grown in a phosphate-limited chemostat at a dilution rate of 0.18 h^−1. Enrichment for gene ontology (GO) terms was determined using GO-term finder (Boyle et al., 2004).

The test system of data set [3] is GEV-GFP. Briefly: GEV-GFP nuclear localization after β-estradiol pulse, single-cell microscopy (DBY11415). The procedure: Fluorescence was measured with an epifluorescence Nikon Eclipse-TI inverted microscope using a Nikon 40×/0.95NA DIC Plan Apo objective. The microscope is equipped with a PerfectFocus system (Nikon) for maintaining the correct focal plane, a Clara CCD Camera (Andor DR328G) for recording fluorescence emission, and a TI-S-ER motorized stage with encoders to ensure near perfect return to marked stage positions (Nikon MEC56100). GEV-GFP emission was visualized at 525 nm (50-nm bandwidth) upon excitation at 470 nm (40-nm bandwidth) (Chroma #49002_Nikon ETGFP filter cube). […]
Overnight cultures of DBY11415 (MATa/MATα HTB2-mCherry-caURA3/HTB2 his3/HIS3, (gal1+PGAL10):: loxP/GAL1, gal4::LEU2/GAL4, HAP1+/hap1−, leu2Δ0::PACT1-GEV-GFP-KanMX/LEU2) were grown in LFM overnight to saturation. […] The Klett was monitored, and at Klett 40 cells were loaded into 96-well glass-bottomed optical plates for microscopy (Nunc #265300). […]
Image processing was performed by preprocessing the images in ImageJ and then using a custom written Matlab script to extract the intensities in the nuclei relative to the cytoplasm. Briefly, the image processing was done as follows: Fluorescence images were background subtracted using the rolling ball background subtraction command in ImageJ using a ball radius of 50 pixels. […]
These preprocessed images were then analyzed using a custom-written Matlab script. […]

In data set [4] the test system is DBY12021. Briefly: Growth curves in YPD liquid with β-estradiol. The procedure: 100 μL of cells+media were grown on flat-bottom 96-well plates (Costar #3631). A600 was measured every 15 minutes in a Synergy HT (Biotek; Vermont) microplate reader. Cells were grown at 30° C. with medium shaking. Growth rates were computed with spline-fits using the grofit R package (KAHM et al. 2010).

The subject of data set [5] is TEV protease / N-end rule degradation. Briefly: Western blot of N-degron-tagged proteins after GEV-mediated induction of TEV. The following applies: 1 μM β-estradiol, YPD; for half-life of NDeg-tagged protein: power-law fit of 10, 20 and 40-minute timepoints. The procedure:
Total protein was extracted from ˜10 mL aliquots of cultures at ˜2×10^7 cells/mL using YPX extraction kit (Protein Discovery, Knoxville, Tenn.) with the addition of protease inhibitors (Roche tablets, cat#11836170001). Proteins were separated using Invitrogen NuPage precast 10% Bis-Tris gels and transferred to Invitrolon PVDF (Invitrogen cat#LC2005) according to the manufacturer's protocols. Primary antibody for the β-Myc epitope was mouse anti-human c-Myc from BD Pharmingen (cat#51-1485GR). Secondary antibody was goat anti-mouse-HRP (cat#115-035-003) from Jackson ImmunoResearch. Primary antibody dilution was typically 1/1000 and secondary antibodies were used at 1/10,000 dilution. Immunoreactive peptides were detected by incubation with ECL^+ detection reagent (Amersham/GE RPN2132) and imaging on HyBlot CL autoradiography film (Denville Scientific, Metuchen, N.J.). As a loading control, blots were probed with mouse monoclonal anti-β-Actin antibody loading control cat#ab8224, Abcam, Cambridge, Mass. ( 1/600 or 1/2000). Secondary antibody was as above, goat anti-mouse-HRP. Protein levels were quantified with the “Gel Analysis” feature in ImageJ and normalized to the t=0 levels in each time course.
MET4 and MET31 genes were chosen for use in a proof of principle experiment to exemplify the protein depletion method (FIG. 8). We constructed Ndeg-modified MET4 and MET31 alleles in separate strains containing GEV and PGAL1-TEV (see Materials and Methods). Cells were grown in rich medium (YPD) and treated with 1 μMβ-estradiol at ˜2×10^7 cells/mL. Western blots were performed on proteins extracted at several time points after induction (FIG. 9). Treatment of cultures with 1 μM β-estradiol had no effect on levels of Met4p-13Myc or Met31p-13Myc lacking NDeg (FIG. 9A, 9B).

Setting [6] is: two hours following saturating (1 μM) β-estradiol addition.

With `C[C@]12CC[C@@H]3c4ccc(O)cc4CC[C@H]3[C@@H]1CC[C@@H]2O` [β-estradiol], in data set [1], the “CBF1 transcript level, share of maximal value” was ~70%. In addition, in data set [2] (3-hour time course, K-means clustering of time course data), the “share of the entire genome affected by GEV-mediated activation” value is “less than 2%”. In addition, the “share of all S. cerevisiae genes changed 2-fold” value in data set [2] (two hours following 1 μM β-estradiol) was “about 3%”. In addition, in data set [2] (setting [6]), the “number of genes that decrease 2-fold” value is 105 genes and the “number of genes that increase 2-fold” value is listed as 94 genes. Besides, the “concentration at which the initial rate of localization achieved its maximum” value in data set [3] is ≥ 1 µM. Moreover, the “effect on growth of GEV-containing cells” value in data set [4] (10 nM β-estradiol) is given as “no longer show the growth defect”. Moreover, in data set [4] (high concentrations of β-estradiol), the “effect on growth of GEV-containing cells” value is given as “slowing of growth”. Further, in data set [4] (strain lacking the GEV system), the “β-estradiol toxicity, growth of a strain lacking the GEV system” value is “slow growth does not occur”.

B1: NDeg-Met31p-13Myc: N-degron-tagged, 13Myc-tagged Met31p target protein (DBY12234) (protein, UniProt Q03081 1-177, looked up)
Transcriptional regulator …: MKLAQDMNVDEIFLKQAAEAIAVISSSPTHTDPIIRELLHRIRQSSPLSAVIPAPENVLKAGEPENMARGLIRIPETQTKRTGGNNHSKEGAQLYSCAKCQLKFSRSSDLRRHEKVHSLVLPHICSNCGKGFARKDALKRHSNTLTCQRNRKKLSEGSDVDVDELIKDAIKNGTGLL
modifications: N-degron tag, 13Myc tag
For B1, the “half-life of NDeg-tagged protein” value in data set [5] was 13.75 min.

B2: Met31p-13Myc: 13Myc-tagged Met31p lacking NDeg (DBY12235), control protein (protein, UniProt Q03081 1-177, looked up)
Transcriptional regulator …: MKLAQDMNVDEIFLKQAAEAIAVISSSPTHTDPIIRELLHRIRQSSPLSAVIPAPENVLKAGEPENMARGLIRIPETQTKRTGGNNHSKEGAQLYSCAKCQLKFSRSSDLRRHEKVHSLVLPHICSNCGKGFARKDALKRHSNTLTCQRNRKKLSEGSDVDVDELIKDAIKNGTGLL
modifications: C-terminal 13Myc tag
notes: 13Myc-tagged Met31p lacking NDeg (DBY12235), control protein
With B2, in data set [5], the “effect of β-estradiol treatment on levels of protein lacking NDeg” value is given as “no effect”.

B3: NDeg-Met4p-13Myc: N-degron-tagged, 13Myc-tagged Met4p target protein (DBY12055) (protein, UniProt P32389 1-672, looked up)
Transcriptional activator of …: MKQEQSHEGDSYSTEFINLFGKDTATHPSSNNGANNNGMGSTNSLDQFVATASSSSSLVTSSENRRPLIGDVTNRGNTNLYDHAVTPEILLEQLAYVDNFIPSLDNEFSNVDWNVNTTHNNANNNGADTFSSINANPFDLDEQLAIELSAFADDSFIFPDEDKPSNNNNNSNNGNDDHSNHDVLHEDPSTNNRQRNPHFLTQRRNTFLTSQYDQSKSRFSSKNKRNGNNGETNNFGDNMQNNHPFEPNFMGSPSQFPADATNMTSIDHGGFTNVDITSTENNTTGDNGVDALSNLLHRTTHTPNRSSPLSNVTSAQNSSSQQRKHSESKVDSNSDNNSSNKAPNITVPDYSIIPTSVLVTLLPRVNVPNGAYNSLISAGFDNDQIDAIAAIMAYHHQKKIRENNSNNNKNINTNDSQEAPILKNINELLSVLIPPSPAETRGPTTLSTSPSFNEHGVVAEASFLSSILELGIKHPKSNNIHNQRQPSRNDHKISRESDGNNGNDNVHHNNAVIKSSTTRGDEIAKIRSEPTLNASSSDHKENSLKRSHSGDLKNKKVPVDRKYSDNEDDEYDDADLHGFEKKQLIKKELGDDDEDLLIQSKKSHQKKKLKEKELESSIHELTEIAASLQKRIHTLETENKLLKNLVLSSGETEGIKKAESLKKQIFEKVQKE
modifications: N-degron tag; 13Myc tag
For the molecule B3, the “half-life of NDeg-tagged protein” value in data set [5] is 16 min.

B4: Met4p-13Myc: 13Myc-tagged Met4p lacking NDeg (DBY11440), control protein (protein, UniProt P32389 1-672, looked up)
Transcriptional activator of …: MKQEQSHEGDSYSTEFINLFGKDTATHPSSNNGANNNGMGSTNSLDQFVATASSSSSLVTSSENRRPLIGDVTNRGNTNLYDHAVTPEILLEQLAYVDNFIPSLDNEFSNVDWNVNTTHNNANNNGADTFSSINANPFDLDEQLAIELSAFADDSFIFPDEDKPSNNNNNSNNGNDDHSNHDVLHEDPSTNNRQRNPHFLTQRRNTFLTSQYDQSKSRFSSKNKRNGNNGETNNFGDNMQNNHPFEPNFMGSPSQFPADATNMTSIDHGGFTNVDITSTENNTTGDNGVDALSNLLHRTTHTPNRSSPLSNVTSAQNSSSQQRKHSESKVDSNSDNNSSNKAPNITVPDYSIIPTSVLVTLLPRVNVPNGAYNSLISAGFDNDQIDAIAAIMAYHHQKKIRENNSNNNKNINTNDSQEAPILKNINELLSVLIPPSPAETRGPTTLSTSPSFNEHGVVAEASFLSSILELGIKHPKSNNIHNQRQPSRNDHKISRESDGNNGNDNVHHNNAVIKSSTTRGDEIAKIRSEPTLNASSSDHKENSLKRSHSGDLKNKKVPVDRKYSDNEDDEYDDADLHGFEKKQLIKKELGDDDEDLLIQSKKSHQKKKLKEKELESSIHELTEIAASLQKRIHTLETENKLLKNLVLSSGETEGIKKAESLKKQIFEKVQKE
modifications: 13Myc tag
notes: 13Myc-tagged Met4p lacking NDeg (DBY11440), control protein
In the case of B4, in data set [5], the “effect of β-estradiol treatment on levels of protein lacking NDeg” value is given as “no effect”.

The values are drawn from patent publication US9212359B2, “Systems for induction of gene expression and protein depletion in yeast” (priority 2011, dated 2015).
